2 molecules from patent EP0114750A2, “Beta-lactam antibacterial agents” (BEECHAM GROUP PLC, priority 1983, dated 1984) can be followed below.

This test concerns P. mirabilis 889. Briefly: MIC, antibacterial activity. Format: cell-based. Particulars: Proteus mirabilis.

The structures appear in SMILES notation. Structures can show the parent of a compound that is named as a salt. Where two headings read alike, the source gives them in different places.

On to `CCN1CCN(C(=O)N[C@@H](C(=O)N[C@]2(NC=O)C(=O)N3C(C(=O)O)=C(CSc4nnnn4CC(N)=O)CS[C@@H]32)c2ccc(OC(C)=O)c(OC(C)=O)c2)C(=O)C1=O` [Example 14, Sodium 3-[(1-carbamoylmethyl-1H-tetrazol-5-yl)thiomethyl]-7β-[D-2-(3,4-diacetoxyphenyl)-2-[(4-ethyl-2,3-dioxopiperazin-1-yl)carbonylamino]acetamido)-7α-formamidoceph-3-em-4-carboxylate], for which the MIC (usually the least concentration at which growth counts as inhibited) (889, strain number not given, read-out: MIC against P.mirabilis) stood at 0.12 µg/mL.

`CCN1CCN(C(=O)N[C@@H](C(=O)N[C@]2(NC=O)C(=O)N3C(C(=O)O)=C(CSc4nnnn4CC(N)=O)CS[C@@H]32)c2ccccc2)C(=O)C1=O` [Example 13, 3-[1-carbamoylmethyl-1H-tetrazol-5-yl)thiomethyl]-7β-[2-[(4-ethyl-2,3-dioxopiperazin-1-yl)-carbonylamino]-2-phenyl-acetamido]-7a-formamidoceph-3-em-4-carboxylic acid, sodium salt]: the MIC (strain P. mirabilis 889, read-out: MIC against P. mirabilis 889) turned out to be 0.12 µg/mL.
